Assay results as given in PMC12683216, “Using High‐Throughput Screening to Identify Crosslinking Peptides That Control Cell‐Mediated Matrix Degradation” (Advanced Healthcare Materials, 2025).
Where a SMILES comes first, the peptide text is derived from it. [ ]: non-standard residue; d: D form. βAla = NCCC(=O)O

Assays:
Assay type in all cases: in vitro ADME, human
Conditions in all cases: human, 24 h, LC-MS
[1] = Soluble peptide degradation, Media condition (cell-conditioned media, LC-MS)
Procedure: (§1) Most in vitro protease activity assays incubate the peptides or proteins of interest with a single protease in a buffered solution. However, the kinetics of protease activity in tissues are complex and highly regulated, and both the activity^[ [37] ^] and substrate specificity^[ [38] ^] of proteases can be modulated through association with other proteins.^[ [39] ^] Most MMP‐substrate peptides are also cleaved by multiple proteases,^[ [5] ^] and within the context of biomaterials, the most important factor is typically how the combined activity of all proteases, rather than the activity of any specific protease, modifies the local microenvironment versus the activity due to any individual enzyme. We synthesized peptides identified in the TAILS proteomic screen that were present on proteins that are known to be secreted or found on the cell membrane, pooled them, and added them either to cell culture media on top of cells, the “Cells” condition, or conditioned media lacking cells, the “Media” condition (Figure 2A). The fraction of peptides remaining after 24 h in each condition was then quantified using LC‐MS. Soluble proteases should be present in both conditions, however, membrane‐type proteases should primarily be found in the samples containing cells and not the conditioned media samples. A key benefit of this approach is that it surveys the total functional proteolytic activity, including the effects of inhibitors and co‐factors, and quantifies the degradation rate of soluble peptides by the complete secretome of different cell types.
(§2) hUVECs (75000 per well) or hMSCs (36000 per well) were seeded into a 48 well plate, and 500 µL media was added to the wells. […] The peptide libraries were dissolved at a stock solution of 10 mM total peptide content. For libraries containing 38 peptides, 95 µL of the stock solution was added to each well; for libraries with 19 peptides, 47.5 µL was added to each well, and media was taken at 0 and 24 h. Add 4 µL of acetic acid to all collected media in the LC‐MS plates and store them in a −80 °C freezer to prevent further proteolytic degradation. From each sample, 10 µL of crude solution was introduced by the LC‐MS through a Thermo Scientific Vanquish LC System (Thermo Fisher Scientific), which outputted to a Thermo Scientific LTQ XL Linear Ion Trap Mass Spectrometer (Thermo Fisher Scientific). The sampled mixture was trapped on a column (ProntoSIL C18 AQ, 120 Å, 3 µm, 2.0 x 50 mm HPLC Column, PN 0502F184PS030, MAC‐MOD Analytical Inc.). The samples were loaded onto the column with a solvent containing acetonitrile/water, 5:95 (v/v) containing 1% acetic acid at a flow rate of 300 µL min^−1 and held for 1 min. The sample was then eluted from the column with a linear gradient of 5–40% Solvent B (1% acetic acid in acetonitrile) at the same flow rate for 5 min. This was followed by a 1 min ramp up to 100% Solvent B, where it was re‐equilibrated with Solvent A (1% acetic acid) to 5% solvent B over the course of 1 min and held there for 2 min. The column temperature was kept at a constant 29 °C, and the mass spectrometer was operated in positive ion mode. Using a Heated ESI, the Source Voltage was set to 4.1 kV, and the capillary temperature was 350 °C. For non‐library degradation studies, 2.5 µL of 10 mM peptide stock solution for each peptide was added.
(§3) To assess the activity of the conditioned media, the media were divided into two equal portions. One portion was used for a standard degradation study, while the other was cultured for an additional 24 h before the PanMMP and KLVADLMASAE were added. After 24 h of incubation, the media were collected for further analysis. To assess the impact of recombinant MMP‐14 on PanMMP and KLVADLMASAE, recombinant MMP‐14 (antibodies.com) was dissolved in the media at a concentration of 0.5 nM. The remaining steps followed the standard degradation study protocol. […]

[2] = Soluble peptide degradation, Cells condition (LC-MS)
Procedure: as §1, §2
In the MMP‐14 inhibitor study, the MMP‐14 inhibitor NSC 405 020 (Cayman Chemical Company) was dissolved in DMSO to make a 10 mM stock solution and stored in −20 °C freezer. 0.5 µL MMP‐14 inhibitor stock solution was added to each well to achieve a 10 µM final concentration.
For all degradation studies using soluble peptides, a non‐proteolytically degradable NH2‐βFβAβAβAβAβAβA‐amide (βFβA6) peptide, where βF is β‐phenylalanine and βA is β‐alanine, was added at a 50 µM concentration and used as an internal standard. Peptide degradation ratios were measured by LC‐MS and analyzed by Xcalibur. […]

[3] = Soluble peptide degradation, Media condition (cell-conditioned media, LC-MS); remark: listed apart in the source
Procedure: as §1, §2, §3

[4] = Figure 2B heatmap, pooled TAILS-derived soluble peptides in 24 h hMSC-conditioned media without cells, ratio to βFβA6 internal standard, 24 h / 0 h, N = 5, read-out: Fraction of peptide remaining at 24 hours: hMSC Media
[5] = hMSCs in culture with fresh media (Cells condition), Figure 2B heatmap, pooled TAILS-derived soluble peptides (Ac-βAla N-terminus, βAla-amide C-terminus) in media on hMSCs (36000 per well, 48 well plate, 500 µL), ratio to βFβA6 internal standard, 24 h / 0 h, N = 5, read-out: Fraction of peptide remaining at 24 hours: hMSC Cells
[6] = Figure 2B heatmap, pooled TAILS-derived soluble peptides in 24 h hUVEC-conditioned media without cells, ratio to βFβA6 internal standard, 24 h / 0 h, N = 5, read-out: Fraction of peptide remaining at 24 hours: hUVEC Media
[7] = hMSC-conditioned media without cells (Media condition), Figure 3B heatmap, split-and-pool libraries KLVADX1X2ASAE in hMSC-conditioned media without cells, ratio to βFβA6, N = 2, read-out: Fraction of peptide remaining after 24 hours: hMSC Media
[8] = hMSCs in culture with fresh media (Cells condition), Figure 3B heatmap, split-and-pool libraries KLVADX1X2ASAE (19 or 38 peptides per library) in media on hMSCs, ratio to βFβA6, N = 2, read-out: Fraction of peptide remaining after 24 hours: hMSC Cells
[9] = hUVECs in culture with fresh media (Cells condition), Figure 3B heatmap, split-and-pool libraries KLVADX1X2ASAE in media on hUVECs, ratio to βFβA6, N = 2, read-out: Fraction of peptide remaining after 24 hours: hUVEC Cells
[10] = hUVEC-conditioned media without cells (Media condition), Figure 3B heatmap, split-and-pool libraries KLVADX1X2ASAE in hUVEC-conditioned media without cells, ratio to βFβA6, N = 2, read-out: Fraction of peptide remaining after 24 hours: hUVEC Media
[11] = hUVECs in culture with fresh media (Cells condition), Figure 2B heatmap, pooled TAILS-derived soluble peptides in media on hUVECs (75000 per well, 48 well plate, 500 µL), ratio to βFβA6 internal standard, 24 h / 0 h, N = 5, read-out: Fraction of peptide remaining at 24 hours: hUVEC Cells

Compound | remaining at 24 h [1, 4] | remaining at 24 h [2, 5] | remaining at 24 h [3, 6] | remaining at 24 h [2, 11] | also measured
CC(=O)NCCC(=O)N[C@@H](C)C(=O)N[C@@H](CO)C(=O)N[C@@H](C)C(=O)N1CCC[C@H]1C(=O)N[C@@H](C)C(=O)N[C@@H](CCCNC(=N)N)C(=O)N1CCC[C@H]1C(=O)N[C@@H](C)C(=O)N[C@@H](CC(C)C)C(=O)N[C@@H](CO)C(=O)NCCC(N)=O [ASAPARPALS] (Ac-[βAla]ASAPARPALS[βAla]-NH2) | 96% | 88% | 94% | – | –
CC(=O)NCCC(=O)N[C@@H](CCCCN)C(=O)N[C@@H](CC(C)C)C(=O)N[C@H](C(=O)N[C@@H](C)C(=O)N[C@@H](CC(=O)O)C(=O)N[C@@H](CC(N)=O)C(=O)N1CCC[C@H]1C(=O)N[C@@H](C)C(=O)N[C@@H](CO)C(=O)N[C@@H](C)C(=O)N[C@@H](CCC(=O)O)C(=O)NCCC(N)=O)C(C)C [Asn-Pro] (Ac-[βAla]KLVADNPASAE[βAla]-NH2) | – | – | – | – | remaining at 24 h ([1]; cells or culture medium, Figure 3B heatmap, split-and-pool libraries KLVADX1X2ASAE in hMSC-conditioned media without cells, ratio to βFβA6, N = 2, read-out: Fraction of peptide remaining after 24 hours: hMSC Media): 84%; remaining at 24 h ([2]; cells or culture medium, Figure 3B heatmap, split-and-pool libraries KLVADX1X2ASAE (19 or 38 peptides per library) in media on hMSCs, ratio to βFβA6, N = 2, read-out: Fraction of peptide remaining after 24 hours: hMSC Cells): 54%; remaining at 24 h ([2]; cells or culture medium, Figure 3B heatmap, split-and-pool libraries KLVADX1X2ASAE in media on hUVECs, ratio to βFβA6, N = 2, read-out: Fraction of peptide remaining after 24 hours: hUVEC Cells): 91%; remaining at 24 h ([3]; cells or culture medium, Figure 3B heatmap, split-and-pool libraries KLVADX1X2ASAE in hUVEC-conditioned media without cells, ratio to βFβA6, N = 2, read-out: Fraction of peptide remaining after 24 hours: hUVEC Media): 98%
CC(=O)NCCC(=O)N[C@@H](CCCCN)C(=O)N[C@@H](CC(C)C)C(=O)N[C@H](C(=O)N[C@@H](C)C(=O)N[C@@H](CC(=O)O)C(=O)N[C@@H](CC(=O)O)C(=O)N[C@@H](CCC(N)=O)C(=O)N[C@@H](C)C(=O)N[C@@H](CO)C(=O)N[C@@H](C)C(=O)N[C@@H](CCC(=O)O)C(=O)NCCC(N)=O)C(C)C [Asp-Gln] (Ac-[βAla]KLVADDQASAE[βAla]-NH2) | – | – | – | – | remaining at 24 h [1, 7]: 75%; remaining at 24 h [2, 8]: 39%; remaining at 24 h [2, 9]: 84%; remaining at 24 h [3, 10]: 102%
CC[C@H](C)[C@H](NC(=O)[C@H](CCC(=O)O)NC(=O)[C@H](C)NC(=O)[C@H](CC(C)C)NC(=O)[C@H](C)NC(=O)[C@H](CC(=O)O)NC(=O)CCNC(C)=O)C(=O)N[C@@H](CC(C)C)C(=O)N[C@@H](CCC(N)=O)C(=O)N[C@@H](C)C(=O)N[C@@H](CC(N)=O)C(=O)N[C@@H](CC(=O)O)C(=O)NCCC(N)=O [DALAEILQAND] (Ac-[βAla]DALAEILQAND[βAla]-NH2) | 90% | 81% | – | 84% | –
CC(=O)NCCC(=O)N[C@@H](CCC(=O)O)C(=O)N[C@@H](CCC(=O)O)C(=O)N[C@@H](CO)C(=O)N[C@@H](CO)C(=O)N[C@@H](Cc1c[nH]c2ccccc12)C(=O)NCC(=O)NCC(=O)N[C@@H](CO)C(=O)N1CCC[C@H]1C(=O)N[C@@H](CO)C(=O)N1CCC[C@H]1C(=O)N[C@H](C(=O)N[C@@H](CCCNC(=N)N)C(=O)NCCC(N)=O)C(C)C [EESSWGGSPSPVR] (Ac-[βAla]EESSWGGSPSPVR[βAla]-NH2) | 99% | 89% | 102% | – | –
CC(=O)NCCC(=O)N[C@@H](CCCCN)C(=O)N[C@@H](CC(C)C)C(=O)N[C@H](C(=O)N[C@@H](C)C(=O)N[C@@H](CC(=O)O)C(=O)NCC(=O)N[C@@H](Cc1ccc(O)cc1)C(=O)N[C@@H](C)C(=O)N[C@@H](CO)C(=O)N[C@@H](C)C(=O)N[C@@H](CCC(=O)O)C(=O)NCCC(N)=O)C(C)C [Gly-Tyr] (Ac-[βAla]KLVADGYASAE[βAla]-NH2) | – | – | – | – | remaining at 24 h [1, 7]: 74%; remaining at 24 h [2, 8]: 48%; remaining at 24 h [2, 9]: 88%; remaining at 24 h [3, 10]: 100%

Continued, in another order:

remaining at 24 h [1, 4] | remaining at 24 h [2, 5] | remaining at 24 h [3, 6] | remaining at 24 h [2, 11] | Compound | also measured
98% | 88% | 102% | 100% | CC(=O)NCCC(=O)N[C@@H](CCC(=O)O)C(=O)N[C@@H](CO)C(=O)N[C@@H](CO)C(=O)N[C@@H](Cc1c[nH]cn1)C(=O)N[C@@H](CC(N)=O)C(=O)N[C@H](C(=O)N[C@@H](Cc1ccc(O)cc1)C(=O)N[C@@H](CC(C)C)C(=O)N[C@H](C(=O)N[C@@H](CCC(N)=O)C(=O)NCCC(N)=O)[C@@H](C)O)[C@@H](C)O [ESSHNTYLTQ] (Ac-[βAla]ESSHNTYLTQ[βAla]-NH2) | –
78% | 22% | – | 70% | CSCC[C@H](NC(=O)[C@H](CCC(=O)O)NC(=O)CNC(=O)[C@H](Cc1ccccc1)NC(=O)[C@H](CO)NC(=O)[C@H](Cc1ccc(O)cc1)NC(=O)[C@@H](NC(=O)[C@H](CCC(=O)O)NC(=O)CCNC(C)=O)C(C)C)C(=O)N1CCC[C@H]1C(=O)N[C@@H](Cc1c[nH]c2ccccc12)C(=O)NCCC(N)=O [EVYSFGEMPW] (Ac-[βAla]EVYSFGEMPW[βAla]-NH2) | –
101% | 96% | 102% | 106% | CC[C@H](C)[C@H](NC(=O)CCNC(C)=O)C(=O)N[C@H](C(=O)N[C@@H](CCCCN)C(=O)N[C@H](C(=O)N[C@@H](CC(=O)O)C(=O)N[C@H](C(=O)N1CCC[C@H]1C(=O)N[C@@H](CC(=O)O)C(=O)N[C@@H](CCSC)C(=O)N[C@H](C(=O)NCCC(N)=O)C(C)C)[C@@H](C)CC)[C@@H](C)O)C(C)C [IVKTDIPDMV] (Ac-[βAla]IVKTDIPDMV[βAla]-NH2) | –
